Test system: NCI-H322M multicellular tumor spheroids, viability (% test/control)
Assay: Anticancer human tumor NCI-H322M cell line growth inhibition;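 as to viability, T/C: spheroids exposed to compound for seven days before readout; 100% = DMSO vehicle control wells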
Conditions: for IC50: curve of first compound; for viability, T/C: stronger effect = lower value
Procedure, shortened: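 Single agents and combinations were tested on spheroids built from tumor cells plus HUVEC and hMSC, at half-log dilutions starting at or near clinical Cmax, else 10 microM; final DMSO 0.25% (v/v).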

[1] = second compound 1 µM, first compound 0.0316 µM
[2] = second compound 1 µM, first compound 0.1 µM
[3] = second compound 1 µM, first compound 0.316 µM
[4] = second compound 1 µM, first compound 1 µM
[5] = second compound 1 µM, first compound 3.16 µM
[6] = second compound 1 µM, first compound 10 µM
[7] = second compound 3.16 µM, first compound 0.0316 µM
[8] = second compound 3.16 µM, first compound 0.1 µM
[9] = second compound 3.16 µM, first compound 0.316 µM
[10] = second compound 3.16 µM, first compound 1 µM
[11] = second compound 3.16 µM, first compound 3.16 µM
[12] = second compound 3.16 µM, first compound 10 µM
[13] = second compound 10 µM, first compound 0.0316 µM
[14] = second compound 10 µM, first compound 0.1 µM
[15] = second compound 10 µM, first compound 0.316 µM
[16] = second compound 10 µM, first compound 1 µM
[17] = second compound 10 µM, first compound 3.16 µM
[18] = second compound 10 µM, first compound 10 µM
[19] = second compound 31.6 µM, first compound 0.0316 µM
[20] = second compound 31.6 µM, first compound 0.1 µM
[21] = second compound 31.6 µM, first compound 0.316 µM
[22] = second compound 31.6 µM, first compound 1 µM
[23] = second compound 31.6 µM, first compound 3.16 µM
[24] = second compound 31.6 µM, first compound 10 µM
[25] = second compound 100 µM, first compound 0.0316 µM
[26] = second compound 100 µM, first compound 0.1 µM
[27] = second compound 100 µM, first compound 0.316 µM
[28] = second compound 100 µM, first compound 1 µM
[29] = second compound 100 µM, first compound 3.16 µM
[30] = second compound 100 µM, first compound 10 µM

## CC1COCCN1c1cc(-c2ccnn2C)c2ccnc(-c3ccn[nH]3)c2n1 (stereo not given) + Cn1nnc2c(C(N)=O)ncn2c1=O
Second compound 1 µM
  IC50: 0.128 µM
Second compound 3.16 µM
  IC50: 0.156 µM
Second compound 10 µM
  IC50: 0.08 µM
Second compound 31.6 µM
  IC50: < 0.0316 µM
Second compound 100 µM
  IC50: < 0.0316 µM
[1]
  viability, T/C: 66.3%
[2]
  viability, T/C: 54.4%
[3]
  viability, T/C: 43.5%
[4]
  viability, T/C: 37.4%
[5]
  viability, T/C: 41.5%
[6]
  viability, T/C: 48.5%
[7]
  viability, T/C: 63%
[8]
  viability, T/C: 55.1%
[9]
  viability, T/C: 42.3%
[10]
  viability, T/C: 34.1%
[11]
  viability, T/C: 37.7%
[12]
  viability, T/C: 40.8%
[13]
  viability, T/C: 72.2%
[14]
  viability, T/C: 44.5%
[15]
  viability, T/C: 45.4%
[16]
  viability, T/C: 37.3%
[17]
  viability, T/C: 40.6%
[18]
  viability, T/C: 50%
[19]
  viability, T/C: 56.1%
[20]
  viability, T/C: 43%
[21]
  viability, T/C: 37.1%
[22]
  viability, T/C: 36.6%
[23]
  viability, T/C: 35.9%
[24]
  viability, T/C: 41.4%
[25]
  viability, T/C: 41.1%
[26]
  viability, T/C: 34.8%
[27]
  viability, T/C: 31.7%
[28]
  viability, T/C: 32%
[29]
  viability, T/C: 35.4%
[30]
  viability, T/C: 40.6%

## COc1cc(C)[nH]c(=O)c1CN1CCc2c(Cl)cc(C(OC)C3COC3)c(Cl)c2C1=O (stereo not given) + Cn1nnc2c(C(N)=O)ncn2c1=O
Second compound 1 µM
  IC50: > 10 µM
Second compound 3.16 µM
  IC50: > 10 µM
Second compound 10 µM
  IC50: > 10 µM
Second compound 31.6 µM
  IC50: > 10 µM
Second compound 100 µM
  IC50: > 10 µM
[1]
  viability, T/C: 90.6%
[2]
  viability, T/C: 93.2%
[3]
  viability, T/C: 97.7%
[4]
  viability, T/C: 106%
[5]
  viability, T/C: 88.1%
[6]
  viability, T/C: 93.3%
[7]
  viability, T/C: 97.5%
[8]
  viability, T/C: 85.8%
[9]
  viability, T/C: 97.4%
[10]
  viability, T/C: 99.5%
[11]
  viability, T/C: 95.4%
[12]
  viability, T/C: 100%
[13]
  viability, T/C: 100%
[14]
  viability, T/C: 108%
[15]
  viability, T/C: 97.2%
[16]
  viability, T/C: 92.3%
[17]
  viability, T/C: 90.2%
[18]
  viability, T/C: 91.6%
[19]
  viability, T/C: 91%
[20]
  viability, T/C: 113%
[21]
  viability, T/C: 102%
[22]
  viability, T/C: 92.3%
[23]
  viability, T/C: 94.1%
[24]
  viability, T/C: 96.5%
[25]
  viability, T/C: 109%
[26]
  viability, T/C: 106%
[27]
  viability, T/C: 114%
[28]
  viability, T/C: 89.7%
[29]
  viability, T/C: 95%
[30]
  viability, T/C: 101%

## COc1ccc([C@@H](O)c2cc(-c3ncnc4cc(N5CCOCC5)ccc34)c(F)cc2Cl)nn1 + Cn1nnc2c(C(N)=O)ncn2c1=O
Second compound 1 µM
  IC50: 3.69 µM
Second compound 3.16 µM
  IC50: 1.4 µM
Second compound 10 µM
  IC50: 2.04 µM
Second compound 31.6 µM
  IC50: 2.01 µM
Second compound 100 µM
  IC50: 1.92 µM
[1]
  viability, T/C: 86%
[2]
  viability, T/C: 77.2%
[3]
  viability, T/C: 85.8%
[4]
  viability, T/C: 55.5%
[5]
  viability, T/C: 57.1%
[6]
  viability, T/C: 35.4%
[7]
  viability, T/C: 78.2%
[8]
  viability, T/C: 80.8%
[9]
  viability, T/C: 81.2%
[10]
  viability, T/C: 52.9%
[11]
  viability, T/C: 50.1%
[12]
  viability, T/C: 35.8%
[13]
  viability, T/C: 105%
[14]
  viability, T/C: 76.9%
[15]
  viability, T/C: 68.2%
[16]
  viability, T/C: 61.2%
[17]
  viability, T/C: 46.8%
[18]
  viability, T/C: 35.3%
[19]
  viability, T/C: 83.6%
[20]
  viability, T/C: 94.6%
[21]
  viability, T/C: 65.7%
[22]
  viability, T/C: 58.9%
[23]
  viability, T/C: 47.9%
[24]
  viability, T/C: 39.5%
[25]
  viability, T/C: 80.7%
[26]
  viability, T/C: 75.5%
[27]
  viability, T/C: 82.7%
[28]
  viability, T/C: 58.6%
[29]
  viability, T/C: 44.8%
[30]
  viability, T/C: 34.4%

## Cc1cc(C)c(CNC(=O)c2cc(-c3ccc(CN4CCOCC4)cc3)cc3c2cnn3C2CCCC2)c(=O)[nH]1 + Cn1nnc2c(C(N)=O)ncn2c1=O
Second compound 1 µM
  IC50: > 10 µM
Second compound 3.16 µM
  IC50: > 10 µM
Second compound 10 µM
  IC50: > 10 µM
Second compound 31.6 µM
  IC50: > 10 µM
Second compound 100 µM
  IC50: > 10 µM
[1]
  viability, T/C: 99.7%
[2]
  viability, T/C: 101%
[3]
  viability, T/C: 98.5%
[4]
  viability, T/C: 94.3%
[5]
  viability, T/C: 133%
[6]
  viability, T/C: 95.5%
[7]
  viability, T/C: 78%
[8]
  viability, T/C: 102%
[9]
  viability, T/C: 103%
[10]
  viability, T/C: 81.3%
[11]
  viability, T/C: 107%
[12]
  viability, T/C: 118%
[13]
  viability, T/C: 92.2%
[14]
  viability, T/C: 94.3%
[15]
  viability, T/C: 105%
[16]
  viability, T/C: 106%
[17]
  viability, T/C: 101%
[18]
  viability, T/C: 119%
[19]
  viability, T/C: 101%
[20]
  viability, T/C: 95%
[21]
  viability, T/C: 103%
[22]
  viability, T/C: 104%
[23]
  viability, T/C: 104%
[24]
  viability, T/C: 122%
[25]
  viability, T/C: 105%
[26]
  viability, T/C: 100%
[27]
  viability, T/C: 113%
[28]
  viability, T/C: 96.8%
[29]
  viability, T/C: 105%
[30]
  viability, T/C: 123%

## Cc1sc2c(c1C)C(c1ccc(Cl)cc1)=NC(CC(=O)Nc1ccc(O)cc1)c1nnc(C)n1-2 (stereo not given) + Cn1nnc2c(C(N)=O)ncn2c1=O
Second compound 1 µM
  IC50: > 3 µM
Second compound 3.16 µM
  IC50: > 3 µM
Second compound 10 µM
  IC50: > 3 µM
Second compound 31.6 µM
  IC50: > 3 µM
Second compound 100 µM
  IC50: > 3 µM
Second compound 1 µM, first compound 0.00949 µM
  viability, T/C: 109%
Second compound 1 µM, first compound 0.03 µM
  viability, T/C: 105%
Second compound 1 µM, first compound 0.0949 µM
  viability, T/C: 134%
Second compound 1 µM, first compound 0.3 µM
  viability, T/C: 114%
Second compound 1 µM, first compound 0.949 µM
  viability, T/C: 81.2%
Second compound 1 µM, first compound 3 µM
  viability, T/C: 80.3%
Second compound 3.16 µM, first compound 0.00949 µM
  viability, T/C: 104%
Second compound 3.16 µM, first compound 0.03 µM
  viability, T/C: 113%
Second compound 3.16 µM, first compound 0.0949 µM
  viability, T/C: 120%
Second compound 3.16 µM, first compound 0.3 µM
  viability, T/C: 103%
Second compound 3.16 µM, first compound 0.949 µM
  viability, T/C: 87.6%
Second compound 3.16 µM, first compound 3 µM
  viability, T/C: 73.5%
Second compound 10 µM, first compound 0.00949 µM
  viability, T/C: 107%
Second compound 10 µM, first compound 0.03 µM
  viability, T/C: 124%
Second compound 10 µM, first compound 0.0949 µM
  viability, T/C: 129%
Second compound 10 µM, first compound 0.3 µM
  viability, T/C: 113%
Second compound 10 µM, first compound 0.949 µM
  viability, T/C: 90.2%
Second compound 10 µM, first compound 3 µM
  viability, T/C: 74.5%
Second compound 31.6 µM, first compound 0.00949 µM
  viability, T/C: 111%
Second compound 31.6 µM, first compound 0.03 µM
  viability, T/C: 130%
Second compound 31.6 µM, first compound 0.0949 µM
  viability, T/C: 120%
Second compound 31.6 µM, first compound 0.3 µM
  viability, T/C: 115%
Second compound 31.6 µM, first compound 0.949 µM
  viability, T/C: 91.2%
Second compound 31.6 µM, first compound 3 µM
  viability, T/C: 71.9%
Second compound 100 µM, first compound 0.00949 µM
  viability, T/C: 116%
Second compound 100 µM, first compound 0.03 µM
  viability, T/C: 124%
Second compound 100 µM, first compound 0.0949 µM
  viability, T/C: 116%
Second compound 100 µM, first compound 0.3 µM
  viability, T/C: 111%
Second compound 100 µM, first compound 0.949 µM
  viability, T/C: 92.7%
Second compound 100 µM, first compound 3 µM
  viability, T/C: 82%

## [2H]c1nc(C)nc([2H])c1-c1cc(NC[C@@H](C)c2cccc3c(C(=O)NC)ccnc23)ncn1 + Cn1nnc2c(C(N)=O)ncn2c1=O
Second compound 1 µM
  IC50: > 10 µM
Second compound 3.16 µM
  IC50: > 10 µM
Second compound 10 µM
  IC50: > 10 µM
Second compound 31.6 µM
  IC50: > 10 µM
Second compound 100 µM
  IC50: > 10 µM
[1]
  viability, T/C: 103%
[2]
  viability, T/C: 101%
[3]
  viability, T/C: 93%
[4]
  viability, T/C: 116%
[5]
  viability, T/C: 88.2%
[6]
  viability, T/C: 84.4%
[7]
  viability, T/C: 105%
[8]
  viability, T/C: 92.1%
[9]
  viability, T/C: 94%
[10]
  viability, T/C: 97.5%
[11]
  viability, T/C: 100%
[12]
  viability, T/C: 99.3%
[13]
  viability, T/C: 85.5%
[14]
  viability, T/C: 80.7%
[15]
  viability, T/C: 77.9%
[16]
  viability, T/C: 99.2%
[17]
  viability, T/C: 107%
[18]
  viability, T/C: 116%
[19]
  viability, T/C: 81.8%
[20]
  viability, T/C: 89.3%
[21]
  viability, T/C: 89.9%
[22]
  viability, T/C: 91.9%
[23]
  viability, T/C: 102%
[24]
  viability, T/C: 99.5%
[25]
  viability, T/C: 96.8%
[26]
  viability, T/C: 88.9%
[27]
  viability, T/C: 100%
[28]
  viability, T/C: 92.5%
[29]
  viability, T/C: 91.8%
[30]
  viability, T/C: 95.3%

From PubChem BioAssay AID1845211 (Molecular Pharmacology Branch, DTP, NCI, 2023)
